Experiments:
[1] = cited from earlier work
[2] = tested on: MDA-MB-468 human breast adenocarcinoma cells; test: Colorimetric cytotoxicity (MTS) assay, minicell-mediated drug delivery; assay type: cell-based; details: MDA-MB-468 cells, within 6 days after treatment
Description: A colorimetric cytotoxicity assay (Promega; CellTiter 96 Aqueous One™) was used. […] MDA-MB 468 cells were seeded at 5×10^6 cells in T75 flasks and incubated for 48 hrs to obtain ˜1×10^7 cells/flask. The media was changed and cells were treated with 10^9 non-targetedminicellsDOX or ^EGFRMinicellsDOX. Free Doxorubicin (50 ng/ml) was also included as a positive control. The cells were incubated for 24 hrs, washed thoroughly with 3 changes of PBS and trypsinized. Viable cells were counted in a haemocytometer using the trypan blue exclusion method. 1×10^4 cells/ml per well were aliqouted into 24-well plates (6 wells per treatment) and incubated for 3, 4, 5, and 6 days with media changes everyday. MTS assay was performed at each time point according to the manufacturers instructions. Briefly, 100 μL of MTS reagent was added to each well and color development was monitored over 2.5 hrs to 4 hrs. 100 μL from each well was transferred to a 96-well plate and the absorbance was read at 490 nm.

[3] = Reaction at the tail vein injection site in xenograft mice (Example 7); assay type: in vivo, athymic nude mice
Description: The experiment was designed as follows. Group 1 (control) received no treatment. Group 2 (control) received free Doxorubicin (5 μg/gm of mouse body weight) intratumorally. This control was included to determine the effect of free Doxorubicin on tumor cells and to assess toxic side-effects. Group 3 (control) was the same as group 2, except that the Doxorubicin was administered intravenously. Group 4 (control) received the anti-O antigen/anti-EGFR BsAb and free Doxorubicin intravenously to show the effect of BsAb in the absence of minicells. […] Groups 7 and 8 received EGFR-targeted ^EGFRMinicellsDOX intravenously and intratumorally, respectively, to determine if receptor-targeted, drug-packaged minicells could effect tumor stabilization. […] Minicells were administered at a dose of 10^8 and all treatments were given on days 17, 24, 27 and 56 post-xenograft establishment. All measurements were performed by an investigator who was blinded to the treatments administered. Statistical analysis was performed by analysis of variance (ANOVA) and P<0.05 was considered to be statistically significant.

[4] = tested on: human breast cancer xenografts; test: Human breast cancer xenograft in nude mice, Paclitaxel minicells (Example 8); assay type: in vivo; details: 1×10^8 minicells or 400 μg free Paclitaxel, intravenously or intratumorally, days 15, 21, 26, 29 and 33
Description: Human breast adenocarcinoma cells (MDA-MB-468, ATCC; human mammary epithelial cells; non-phagocytic) were grown in tissue culture to full confluency in T-75 flasks in RPMI 1640 medium supplemented with 5% Bovine Calf Serum (GIBCO-BRL Life Technologies, Invitrogen Corporation, Carlsbad, Calif., USA) and glutamine (Invitrogen) in a humidified atmosphere of 95% air and 5% CO2 at 37° C. 1×10^6 cells in 50 uL serum-free media together with 50 uL growth factor reduced matrigel (BD Biosciences, Franklin Lakes, N.J., USA) were injected subcutaneously between the shoulder blades of each mouse using a 23-gauge needle. The tumors were measured twice a week using an electronic digital caliper (Mitutoyo, Japan, precision to 0.001) and mean tumor volume was calculated using the formula, length (mm)×width^2 (mm)×0.5=volume (mm^3). 16 days post-implantation, the tumors reached volumes between 50 mm^3 and 80 mm^3, and mice were randomized to seven different groups of 11 per group.
The experiment shown in example 7 was repeated using ^EGFRminicellsPaclitaxel as the experimental treatment. […]

## CC[C@]1(O)C[C@@H]2CN(CCc3c([nH]c4ccccc34)[C@@](C(=O)OC)(c3cc4c(cc3OC)N(C)[C@H]3[C@@](O)(C(=O)OC)[C@H](OC(C)=O)[C@]5(CC)C=CCN6CC[C@]43[C@@H]65)C2)C1 [Vinblastine]
[1]
  solubility in water: low solubility in water

## COc1cccc2c1C(=O)c1c(O)c3c(c(O)c1C2=O)C[C@@](O)(C(=O)CO)C[C@@H]3O[C@H]1C[C@H](N)[C@H](O)[C@H](C)O1 [free Doxorubicin, Doxorubicin]
[2]
  cell viability: about 30%
[3]
  reaction at the site of injection: severe reaction at the site of the injection

## CC(=O)O[C@H]1C(=O)[C@@]2(C)[C@H]([C@H](OC(=O)c3ccccc3)[C@]3(O)C[C@H](OC(=O)[C@H](O)[C@@H](NC(=O)c4ccccc4)c4ccccc4)C(C)=C1C3(C)C)[C@]1(OC(C)=O)CO[C@@H]1C[C@@H]2O [free paclitaxel, Paclitaxel]
[4]
  tumor stabilization/regression: negligible effect on tumor growth

— patent publication US10799461B2 (priority 2004, dated 2020)
